{
  "source": "patent US12077503B2",
  "about": "“Substituted cyclic amides and their use as herbicides” (FMC CORPORATION, priority 2015, dated 2024)",
  "type_in_all_cases": "in vivo",
  "key": {"[1]": {"system": "sedge, umbrella (small-flower umbrella sedge, Cyperus difformis)", "assay": "Test B flooded paddy test", "conditions": "Cyperus difformis, 250 g ai/ha, Flood; 0 to 100 scale where 0 is no effect and 100 is complete control; read-out: Sedge, Umbrella plant response rating", "how_it_was_run": "(§1)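 Evaluation by eye, against controls, occurred 13–15 d post-treatment in a greenhouse, using a 0 (no effect) to 100 (complete control) scale. Application was into the paddy water, 3 cm deep over the soil, on 2-leaf plants.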"}, "[2]": {"system": "ducksalad (Heteranthera limosa)", "assay": "Test B flooded paddy test", "conditions": "Heteranthera limosa, 250 g ai/ha, Flood; 0 to 100 scale where 0 is no effect and 100 is complete control; read-out: Ducksalad plant response rating", "how_it_was_run": "as §1"}, "rice (Oryra sativa)": {"system": "rice (Oryra sativa)", "assay": "Test B flooded paddy test", "conditions": "Oryza sativa, 250 g ai/ha, Flood; 0 to 100 scale where 0 is no effect and 100 is complete control; read-out: Rice plant response rating", "how_it_was_run": "as §1"}, "[3]": {"system": "barnyardgrass (Echinochloa crus-galli)", "assay": "Test B flooded paddy test", "conditions": "Echinochloa crus-galli, 250 g ai/ha, Flood; 0 to 100 scale where 0 is no effect and 100 is complete control; read-out: Barnyardgrass plant response rating", "how_it_was_run": "as §1"}, "[4]": {"system": "pigweed (Amaranthus retroflexus)", "assay": "Test A preemergence", "conditions": "Amaranthus retroflexus, pre-emergence, 240 h, Preemergence"}, "[5]": {"system": "giant foxtail (Setaria faberii)", "assay": "Test A preemergence", "conditions": "Setaria faberi, pre-emergence, 240 h, Preemergence", "how_it_was_run": "(§2)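 Seeds sprayed preemergence with a directed soil spray, or plants at 2 to 10 cm height and one- to two-leaf stage sprayed postemergence, with test chemicals in a non-phytotoxic solvent mixture containing surfactant, in loam soil–sand blend. Injury rated visually against untreated controls after about 10 d in greenhouse, 0 (no effect) to 100 (complete control).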"}, "[6]": {"system": "ragweed (common ragweed, Ambrosia elatior)", "assay": "Test A preemergence", "conditions": "Ambrosia artemisiifolia, pre-emergence, 240 h, Preemergence", "how_it_was_run": "as §2"}, "[7]": {"system": "ryegrass, Italian (Italian ryegrass, Lolium multiflorum)", "assay": "Test A preemergence", "conditions": "Lolium multiflorum, pre-emergence, 240 h, Preemergence", "how_it_was_run": "as §2"}, "[8]": {"system": "barnyardgrass (Echinochloa crus-galli)", "assay": "Test A preemergence", "conditions": "Echinochloa crus-galli, pre-emergence, 240 h, Preemergence", "how_it_was_run": "as §2"}, "Kochia (Kochia scoparia) [9]": {"system": "Kochia (Kochia scoparia)", "assay": "Test A preemergence", "conditions": "Bassia scoparia, pre-emergence, 240 h, Preemergence", "how_it_was_run": "as §2"}, "[10]": {"system": "wheat (Triticum aestivum)", "assay": "Test A postemergence", "conditions": "Triticum aestivum, post-emergence, 240 h, Postemergence, read-out: Plant response rating, Wheat", "how_it_was_run": "as §2"}, "[11]": {"system": "pigweed (Amaranthus retroflexus)", "assay": "Test A postemergence", "conditions": "Amaranthus retroflexus, post-emergence, 240 h, Postemergence, read-out: Plant response rating, Pigweed", "how_it_was_run": "as §2"}, "[12]": {"system": "giant foxtail (Setaria faberii)", "assay": "Test A postemergence", "conditions": "Setaria faberi, post-emergence, 240 h, Postemergence, read-out: Plant response rating, Foxtail, Giant", "how_it_was_run": "as §2"}, "[13]": {"system": "ragweed (common ragweed, Ambrosia elatior)", "assay": "Test A postemergence", "conditions": "Ambrosia artemisiifolia, post-emergence, 240 h, Postemergence, read-out: Plant response rating, Ragweed", "how_it_was_run": "as §2"}, "corn (Zea mays)": {"system": "corn (Zea mays)", "assay": "Test A postemergence", "conditions": "Zea mays, post-emergence, 240 h, Postemergence", "how_it_was_run": "as §2"}, "[14]": {"system": "ryegrass, Italian (Italian ryegrass, Lolium multiflorum)", "assay": "Test A postemergence", "conditions": "Lolium multiflorum, post-emergence, 240 h, Postemergence, read-out: Plant response rating, Ryegrass, Italian", "how_it_was_run": "as §2"}, "[15]": {"system": "barnyardgrass (Echinochloa crus-galli)", "assay": "Test A postemergence", "conditions": "Echinochloa crus-galli, post-emergence, 240 h, Postemergence, read-out: Plant response rating, Barnyardgrass", "how_it_was_run": "as §2"}, "Kochia (Kochia scoparia) [16]": {"system": "Kochia (Kochia scoparia)", "assay": "Test A postemergence", "conditions": "Bassia scoparia, post-emergence, 240 h, Postemergence, read-out: Plant response rating, Kochia", "how_it_was_run": "as §2"}, "[17]": {"system": "blackgrass (Alopecurus myosuroides)", "assay": "Test A postemergence", "conditions": "Alopecurus myosuroides, post-emergence, 240 h, Postemergence, read-out: Plant response rating, Blackgrass", "how_it_was_run": "as §2"}, "[18]": {"system": "Galium (catchweed bedstraw, Galium aparine)", "assay": "Test A postemergence", "conditions": "Galium, post-emergence, 240 h, Postemergence, read-out: Plant response rating, Galium", "how_it_was_run": "as §2"}, "[19]": {"conditions": "125 g ai/ha, visual injury after approximately 10 d, 0 to 100 scale where 0 is no effect and 100 is complete control"}, "[20]": {"conditions": "31 g ai/ha, visual injury after approx. 10 d, 0 to 100 scale, 0 no effect, 100 complete control"}},
  "data": [
    {"smiles": "O=C(Nc1ccc(F)c(F)c1F)[C@H]1C(=O)N(C2CC2)CC[C@@H]1c1ccc(F)cc1", "note": "[Compound 1004]", "values": [
      {"measurement": "pest or weed control at 250 g/ha", "setting": "[1]", "value": 0, "unit": "%"},
      {"measurement": "pest or weed control at 250 g/ha", "setting": "[2]", "value": 60, "unit": "%"},
      {"measurement": "pest or weed control at 250 g/ha", "setting": "rice (Oryra sativa)", "value": 0, "unit": "%"},
      {"measurement": "pest or weed control at 250 g/ha", "setting": "[3]", "value": 0, "unit": "%"},
      {"measurement": "pest or weed control at 31 g/ha", "setting": "[4]; 31 g ai/ha, 0 to 100 scale where 0 is no effect and 100 is complete control, read-out: Pigweed plant response rating", "value": 0, "unit": "%"},
      {"measurement": "pest or weed control at 125 g/ha", "setting": "[4]; 125 g ai/ha, visual injury rating after approximately 10 d, read-out: Pigweed plant response rating (0 to 100 scale, 0 is no effect, 100 is complete control)", "value": 0, "unit": "%"},
      {"measurement": "pest or weed control at 125 g/ha", "setting": "[5]; 125 g ai/ha, visual injury rating after approximately 10 d, read-out: Foxtail, Giant plant response rating (0 to 100 scale, 0 is no effect, 100 is complete control)", "value": 30, "unit": "%"},
      {"measurement": "pest or weed control at 31 g/ha", "setting": "[5]; 31 g ai/ha, 0 to 100 scale (0 no effect, 100 complete control), read-out: Plant response rating, Foxtail, Giant", "value": 0, "unit": "%"},
      {"measurement": "pest or weed control at 31 g/ha", "setting": "[6]; 31 g ai/ha, 0 to 100 scale where 0 is no effect and 100 is complete control, read-out: Ragweed plant response rating", "value": 0, "unit": "%"},
      {"measurement": "pest or weed control at 125 g/ha", "setting": "[6]; 125 g ai/ha, visual injury rating after approximately 10 d, read-out: Ragweed plant response rating (0 to 100 scale, 0 is no effect, 100 is complete control)", "value": 0, "unit": "%"},
      {"measurement": "pest or weed control at 31 g/ha", "setting": "[7]; 31 g ai/ha, 0 to 100 scale where 0 is no effect and 100 is complete control, read-out: Ryegrass, Italian plant response rating", "value": 0, "unit": "%"},
      {"measurement": "pest or weed control at 125 g/ha", "setting": "[7]; 125 g ai/ha, visual injury rating after approximately 10 d, read-out: Ryegrass, Italian plant response rating (0 to 100 scale, 0 is no effect, 100 is complete control)", "value": 0, "unit": "%"},
      {"measurement": "pest or weed control at 125 g/ha", "setting": "[8]; 125 g ai/ha, visual injury rating after approximately 10 d, read-out: Barnyardgrass plant response rating (0 to 100 scale, 0 is no effect, 100 is complete control)", "value": 0, "unit": "%"},
      {"measurement": "pest or weed control at 31 g/ha", "setting": "[8]; 31 g ai/ha, 0 to 100 scale (0 no effect, 100 complete control), read-out: Plant response rating, Barnyardgrass", "value": 0, "unit": "%"},
      {"measurement": "pest or weed control at 31 g/ha", "setting": "Kochia (Kochia scoparia) [9]; 31 g ai/ha, 0 to 100 scale where 0 is no effect and 100 is complete control, read-out: Kochia plant response rating", "value": 0, "unit": "%"},
      {"measurement": "pest or weed control at 125 g/ha", "setting": "Kochia (Kochia scoparia) [9]; 125 g ai/ha, visual injury rating after approximately 10 d, read-out: Kochia plant response rating (0 to 100 scale, 0 is no effect, 100 is complete control)", "value": 0, "unit": "%"},
      {"measurement": "plant injury at 125 g/ha", "setting": "[10]; [19]", "value": 0, "unit": "%"},
      {"measurement": "plant injury at 31 g/ha", "setting": "[10]; [20]", "value": 0, "unit": "%"},
      {"measurement": "pest or weed control at 125 g/ha", "setting": "[11]; [19]", "value": 0, "unit": "%"},
      {"measurement": "pest or weed control at 31 g/ha", "setting": "[11]; [20]", "value": 0, "unit": "%"},
      {"measurement": "pest or weed control at 125 g/ha", "setting": "[12]; [19]", "value": 0, "unit": "%"},
      {"measurement": "pest or weed control at 31 g/ha", "setting": "[12]; [20]", "value": 0, "unit": "%"},
      {"measurement": "pest or weed control at 125 g/ha", "setting": "[13]; [19]", "value": 0, "unit": "%"},
      {"measurement": "pest or weed control at 31 g/ha", "setting": "[13]; [20]", "value": 0, "unit": "%"},
      {"measurement": "Corn plant response rating (crop injury, 0 = no effect, 100 = complete kill) at 125 g/ha", "setting": "corn (Zea mays); [19]", "value": 0, "unit": "%"},
      {"measurement": "Corn plant response rating (crop injury, 0 = no effect, 100 = complete kill) at 31 g/ha", "setting": "corn (Zea mays); [20]", "value": 0, "unit": "%"},
      {"measurement": "pest or weed control at 125 g/ha", "setting": "[14]; [19]", "value": 0, "unit": "%"},
      {"measurement": "pest or weed control at 31 g/ha", "setting": "[14]; [20]", "value": 0, "unit": "%"},
      {"measurement": "pest or weed control at 125 g/ha", "setting": "[15]; [19]", "value": 0, "unit": "%"},
      {"measurement": "pest or weed control at 31 g/ha", "setting": "[15]; [20]", "value": 0, "unit": "%"},
      {"measurement": "pest or weed control at 125 g/ha", "setting": "Kochia (Kochia scoparia) [16]; [19]", "value": 0, "unit": "%"},
      {"measurement": "pest or weed control at 31 g/ha", "setting": "Kochia (Kochia scoparia) [16]; [20]", "value": 0, "unit": "%"},
      {"measurement": "pest or weed control at 125 g/ha", "setting": "[17]; [19]", "value": 0, "unit": "%"},
      {"measurement": "pest or weed control at 31 g/ha", "setting": "[17]; [20]", "value": 0, "unit": "%"},
      {"measurement": "pest or weed control at 125 g/ha", "setting": "[18]; [19]", "value": 0, "unit": "%"},
      {"measurement": "pest or weed control at 31 g/ha", "setting": "[18]; [20]", "value": 0, "unit": "%"}
    ]}
  ]
}
